Results as given in patent US20120064514A1, “HIV-1-C […]” (Virco BVBA, priority 2009, published 2012).
Entries after “also recorded” stand apart in the source; their conditions may differ.

Key:
[1] = system: HIV-1-C recombinant virus stocks (pGEM-HIV-1-C-Δgprt-BstEII backbone); experiment: Antiviral drug susceptibility testing of recombinant virus stocks, subtype C GPRT amplicon in HIV-1 subtype C backbone, MT4-eGFP cells; assay type: cell-based; settings: for ratio FCsubtype B/FCsubtype C (fold change in IC50 vs wild-type): same subtype C GPRT amplicons in subtype B vs subtype C backbone, FIG. 3-E, ratio significantly different from 1 (p<0.05) for the listed drugs; for effect of RAM M184V in RT on FC: subtype C backbone, Clone 3 of Sample 3, FC with vs without 184V, FIG. 4
Text: (§1) An HIV subtype C backbone was designed in silico. The complete genome (12 721 bp) was divided into 4 fragments which were chemically synthesized and subsequently joined together by traditional subcloning. Gag-protease-reverse-transcriptase (GPRT) fragments from 8 patient samples infected with subtype C HIV-1 were RT-PCR amplified. The 1.7 kb PCR fragment was cloned into the HIV-1-C backbone (deleted for GPRT) using In-Fusion reagents. Full-genome clones (N ranging from 1 to 5 per patient sample) were transfected in MT4-eGFP cells where cyto-pathogenic effect (CPE), p24 and Viral Load (VL) were monitored. The resulting HIV-1-C recombinant virus stocks (RVSs) were added to MT4-eGFP cells in the presence of serial dilutions of antiretroviral drugs (PI, NNRTI, N(t)RTI) to determine the fold-change in IC50 compared to the IC50 of wild-type HIV-1 virus. Additionally, viral RNA was extracted from the HIV-1-C RVSs and submitted to an RT-PCR. The resulting GPRT amplicons were recombined into a subtype B backbone and phenotyped as described above, allowing the comparison of GPRT resistance profiles in the two backbones.
(§2) 5. Antiviral Drug Susceptibility Testing of Virus Stocks Generated with the pGEM-HIV-1-C-Δgprt-BstEII vs. the pGEM-HXB2-Δgprt-BstEII Backbone but Carrying Identical GPRT Fragments.
(§3) Fold-change values were calculated by dividing the IC50 values of the virus stocks harboring Resistance Associated Mutations (RAMs) by the IC50 values of the corresponding backbone with wild-type amplicon.

[2] = system: recombinant virus stocks with subtype C GPRT in pGEM-HXB2-Δgprt-BstEII (subtype B) backbone; experiment: Antiviral drug susceptibility testing of recombinant virus stocks, subtype C GPRT amplicon in HIV-1 subtype B backbone, MT4-eGFP cells; assay type: cell-based; settings: Clone 3 of Sample 3, FC with vs without 184V, FIG. 4
Text: as §1
In contrast to the In-Fusion strategy for the subtype C backbone, a homologous recombination event strategy was used for the subtype B backbone to generate infectious virus. Here the BstEII-linearized pGEM-HXB2Δgprt-BstEII backbone was co-transfected with the 1.8 kb GPRT fragment in an MT4 cell line, resulting in a full-genome infectious virus.
as §2, §3

Row | SMILES | ratio FCsubtype B/FCsubtype C (fold change in IC50 vs wild-type) [1] | effect of RAM M184V in RT on FC [2] | effect of RAM M184V in RT on FC [1]
1 | Cc1cc(C#N)cc(C)c1Oc1nc(Nc2ccc(C#N)cc2)nc(N)c1Br [ETR, etravirine] | 0.67 |  | 
2 | Cc1cccc(C)c1OCC(=O)N[C@@H](Cc1ccccc1)[C@@H](O)C[C@H](Cc1ccccc1)NC(=O)[C@H](C(C)C)N1CCCNC1=O [lopinavir] | 1.86 |  | 
3 | CC(C)CN(C[C@@H](O)[C@H](Cc1ccccc1)NC(=O)O[C@H]1CO[C@H]2OCC[C@H]21)S(=O)(=O)c1ccc(N)cc1 [darunavir] | 1.78 |  | 
4 | Nc1nc(NC2CC2)c2ncn([C@H]3C=C[C@@H](CO)C3)c2n1 [ABC] |  | not significantly affected | not significantly affected
5 | CC(C)OC(=O)OCOP(=O)(CO[C@H](C)Cn1cnc2c(N)ncnc21)OCOC(=O)OC(C)C.O=C(O)/C=C/C(=O)O [TDF] |  | decreases the FC | decreases the FC
6 | Cc1ccnc2c1NC(=O)c1cccnc1N2C1CC1 [nevirapine] | 1.61 |  | 
7 | O=c1[nH]cnc2c1ncn2[C@H]1CC[C@@H](CO)O1 [ddI, didanosine] |  | not significantly affected | not significantly affected
8 | Cc1cn([C@H]2C[C@H](N=[N+]=[N-])[C@@H](CO)O2)c(=O)[nH]c1=O [AZT] |  | re-sensitizing effects; also recorded: decreases the FC | re-sensitizing effects; also recorded: decreases the FC
9 | Cc1cn([C@H]2C=C[C@@H](CO)O2)c(=O)[nH]c1=O [d4T] |  | decreases the FC | decreases the FC
10 | Nc1nc(=O)n([C@@H]2CS[C@H](CO)O2)cc1F [FTC, emtricitabine] | 0.50 | increase in FC | increase in FC
